Results on five molecules are retold here after patent US20170051249A1, “MANIPULATION OF OVARIAN PRIMORDIAL FOLLICLES” (The Board of Trustees of the Leland Stanford junior …, priority 2009, published 2017).

One series deals with PTEN (Homo sapiens, UniProt P60484). The conditions noted are these: in vitro, known inhibitors; read-out: IC50 for inhibition of PTEN; cited from earlier work.
Another series relates to PTP. The conditions noted are these: read-out: IC50 as PTP inhibitor; cited from earlier work.
The subject of series [1] is dormant primordial follicles of neonatal ovaries. Kind of series: Transient in vitro exposure of neonatal mouse ovaries to PTEN inhibitor, kidney capsule transplantation into ovariectomized FSH-treated hosts, histology (Examples 2 and 3). The series is classed as in vivo. How it is done: Ovaries fixed for at least 24 h are dehydrated, embedded in paraffin, and serially sectioned at 5 μm intervals. The sections are mounted on glass slides and stained with Mayers hematoxylin and eosin. Follicles are counted using the dissector and fractionator principles (see Mayhew et al. (1991) Exp Physiol 76:639-65). Every fifth section of each ovary is used for analysis. Follicle stages are determined based on the classification used by Flaws et al. (1997) Biol. Reprod. 57:1233-1237. Follicles are assessed blindly and confirmed by two investigators. Data is expressed as percentage of follicle per ovary.
Follicles are identified as healthy if they contained an intact oocyte, organized granulosa and thecal cell layers, and no pyknotic bodies. Follicles are considered atretic if they contain a degenerating oocyte, disorganized granulosa cells with pyknotic nuclei or apoptotic bodies. Follicles will be scored as “primordial” if they contain an intact oocyte with a visible nucleolus surrounded by a single layer of fusiform-shaped granulosa cells. Follicles are scored as “primary” if they consist of an intact, enlarged oocyte with a visible nucleolus and a single layer of cuboidal granulosa cells. Follicles are scored as preantral if they contain an oocyte with a visible nucleolus and more than one layer of granulosa or thecal cells. To obtain an estimate of the total number of follicles per ovary, the number of primordial, primary, and preantral follicles are multiplied by 5 to account for the fact that every fifth section was used for analyses. Statistical analysis of follicle number is performed using Sigmastat statistical software v.2 (Jandel Corporation, San Rafael, Calif., USA).
Transient incubation of neonatal ovaries in vitro with bpV(pic) may avoid the adverse side effects of the PTEN inhibitor in vivo to allow a tissue-specific action of the inhibitor. After treatment using the PTEN inhibitor, ovaries are transplanted into adult hosts. To facilitate follicle growth, adult recipients are ovariectomized to increase endogenous gonadotropin levels. […]

The subject of series [2] is Foxo3 nuclear export in primordial oocytes. Kind of series: Foxo3 nuclear export in primordial follicles of human ovarian cortical cubes. The series is classed as cell-based. As to conditions: 1 h treatment, 100 uM. How it is done:
(§1) Informed consent from the patient and approval from the Human Subject Committee of Akita University were obtained. Ovarian cortex was isolated and cut into small cubes (˜1 mm^3). After treatment of cortical cubes for 1 h with bpV(pic), some samples were used for immunohistochemical staining for Foxo3. Some ovarian cubes were also cultured in MEM-a medium containing 10% human serum albumin (Mitsubishi Tanabe Pharma Corp, Osaka, Japan), 1% antibiotic/antimycotic solution (Invitrogen), and 0.3 IU/ml FSH. Pairs of cortical cubes were treated with bpV(pic) ([…]) or saline for 24 h before xeno-transplantation into each side of the kidney capsule of ovariectomized, immune-deficient SCID mice. An i.p. injection of antibiotic (4 μg/g body weight; gentamicin; Invitrogen) was given while animals were anesthetized by 2,2,2-tribromoethanol (0.4 mg/g body weight; avertin; Sigma). Three day after transplantation, animals were treated i.p. with FSH (1 IU/animal) every 48 h for 24 weeks. At 36 h before sample retrieval, hCG (20 IU/animal) was injected subcutaneously. Ovarian grafts were recovered for histological analyses and follicle counting.

For series [3], the system named is human primordial follicles. Kind of series: Human follicle activation: cortical cubes treated in vitro, xeno-transplanted into kidney capsule of ovariectomized SCID mice, follicle counting. In kind it is in vivo. As for the experimental part: as §1
[4] abbreviates: antral follicles of four grafts, after hCG.

Chain of PTEN (P60484 whole entry): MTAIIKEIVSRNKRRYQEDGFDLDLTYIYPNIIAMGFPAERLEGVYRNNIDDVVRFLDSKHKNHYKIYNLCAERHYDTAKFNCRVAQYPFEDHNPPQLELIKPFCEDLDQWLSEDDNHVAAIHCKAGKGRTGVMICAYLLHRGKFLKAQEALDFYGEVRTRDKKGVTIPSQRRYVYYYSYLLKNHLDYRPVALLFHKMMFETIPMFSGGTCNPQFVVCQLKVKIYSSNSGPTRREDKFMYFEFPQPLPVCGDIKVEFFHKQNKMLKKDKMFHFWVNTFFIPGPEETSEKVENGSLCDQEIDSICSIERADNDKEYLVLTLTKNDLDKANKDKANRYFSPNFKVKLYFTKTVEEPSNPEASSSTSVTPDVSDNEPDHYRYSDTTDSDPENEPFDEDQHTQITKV

With “potassium bisperoxo(bipyridine)oxovanadate (V)”, at PTEN, the IC50 was 18 nM.

Regarding `OO.OO.[K+].[OH-].[V].c1cnc2c(c1)ccc1cccnc12` [potassium bisperoxo (1,10-phenanthroline)oxovanadate (V)], the IC50 at PTEN is 38 nM.

For monoperoxo(picolinato)oxovanadate(V), in the series on PTP, the IC50 was 18000 nM.

With `O.O.O=C([O-])c1ccccn1.OO.OO.[K+].[K+].[OH-].[V]` [bpV(pic), dipotassium bisperoxo(picolinato)oxovanadate (V)], the “ovarian size as compared with control ovaries” value in series [1] (100 μM for 24 h in vitro, twelve days after transplantation) is “clear increases in sizes”. For the same molecule, in series [1] (250 uM for 6 h in vitro, day 3 Balb/c ovaries, transplanted, FSH 12 days, preliminary analysis, three pairs of ovaries), the “decrease of the percentage of primordial (Pmd) follicles as compared to controls” value is 60%. Further, the “effect on follicle development and nuclear maturation of the preovulatory oocyte” value in series [1] (6 h in vitro exposure, 15 days after transplantation, hCG 8 h) is given as “did not cause detrimental effects”. In series [2], the “increase in nuclear exclusion of Foxo3 versus controls” value is listed as 2 fold. In addition, the “follicles that left the dormant primordial pool and developed into larger follicles” value in series [3] (24 h treatment (100 mM), after transplantation, FSH 24 weeks) stood at 89%. Further, the “graft size as compared with controls” value in series [3] (24 h treatment, 6 months after xeno-transplantation) was “major increases in graft sizes”. For the same molecule, the “increases in the number of secondary and antral follicles” value in series [3] (24 h treatment, after xeno-transplantation) was approximately 4 fold. In series [3] (setting [4]), the “number of oocytes at GV stage” value is 5, the “number of oocytes at MI stage” value is on record as 15 and the “number of oocytes at MII stage” value is reported as 12. Besides, the “number of antral follicles (>1 mm diameter)” value in series [3] (in four ovarian grafts) was determined as 32. Further, the “malignancy in xenografted human ovaries or hosts” value in series [3] (six months of transplantation, short term exposure) is recorded as “No malignancy was found”. In series [3] (versus paired control grafts), the “increase in the number of antral follicles” value was 4 fold and the “increase in the number of mature (MI & MII) oocytes” value was determined as 27 fold. The 50% inhibitory concentration (IC50) on PTEN was 31 nM.

Regarding “dipotassium bisperoxo(5-hydroxypyridine-2-carboxyl)oxovanadate (V)”, at PTEN, the IC50 was 14 nM.
